In patent publication US5874432A, “Saccharin derivatives useful as proteolytic enzyme inhibitors and compositions and method of use thereof” (priority 1997, dated 1999):
Read-outs that look alike come from different tables or passages of the source.

Target: T1, human leukocyte elastase (Homo sapiens, UniProt P08246)
T1 sequence (P08246 30-267): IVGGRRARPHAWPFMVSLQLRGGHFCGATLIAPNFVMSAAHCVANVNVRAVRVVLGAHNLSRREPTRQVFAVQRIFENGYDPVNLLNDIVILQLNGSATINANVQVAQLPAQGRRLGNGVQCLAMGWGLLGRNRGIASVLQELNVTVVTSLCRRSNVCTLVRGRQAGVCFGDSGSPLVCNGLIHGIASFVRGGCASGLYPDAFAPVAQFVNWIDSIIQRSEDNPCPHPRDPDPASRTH
Assay: elastase inhibition using human leukocyte elastase (kon and Ki*)
Type: biochemical
Settings: for Ki: Ki* = koff/kon, read-out: Elastase Ki *; for kon: read-out: Elastase 10^-3 × kon

[1] = rate of inactivation of enzyme, value is 10^-3 × kon

Method: Thus, instead of measuring a Ki, a Ki * is calculated which is defined as the ratio of the koff /kon, the rate of reactivation of the enzyme to the rate of inactivation of the enzyme. The values of koff and kon are measured and Ki * is then calculated.
The rate of inactivation, kon, of enzymatic activity was determined for the compounds tested by measuring the enzyme activity of an aliquot of the respective enzyme as a function of time after addition of the test compound. […] The rate of inactivation is then equal to [formula] where [I] is the concentration of the inhibiting compound.
The reactivation constant, koff, is similarly determined and the inhibition constant, Ki *, is then calculated as

Row | Compound | Ki [nM] | kon [1] [M⁻¹ s⁻¹] | kon [M⁻¹ s⁻¹] | Elastase 10^-3 × kon [1] [M^-1 sec^-1]
1 | O=C1c2c(Cl)cccc2S(=O)(=O)N1CSc1nnnn1-c1ccccc1 [Example 4, 4-chloro-2-(1-phenyl-1H-tetrazol-5-ylthiomethyl)saccharin] | 12 | 20000 | – | –
2 | O=C1c2ccccc2S(=O)(=O)N1CSc1nnnn1C1CCCCC1 [Example 9, 2-(1-cyclohexyl-1H-tetrazol-5-ylthiomethyl)saccharin] | – | 2500 | – | –
3 | O=C1c2cc([N+](=O)[O-])ccc2S(=O)(=O)N1CSc1nnnn1-c1ccccc1 [Example 11, 5-nitro-2-(1-phenyl-1H-tetrazol-5-ylthiomethyl)saccharin] | – | – | 4600 | –
4 | O=C1c2ccccc2S(=O)(=O)N1COc1ccc([N+](=O)[O-])cc1 [Example 15, 2-(4-nitrophenoxymethyl)saccharin] | 69 | 3200 | – | –
5 | O=C(CC(c1ccccc1)c1ccccc1)Nc1ccc2c(c1)C(=O)N(CSc1nnnn1-c1ccccc1)S2(=O)=O [Example 16, 5-(3,3-diphenylpropionamido)-2-(1-phenyl-1H-tetrazol-5-ylthiomethyl)saccharin] | 2600 | – | – | –
6 | COC(=O)C(Sc1nnnn1-c1ccccc1)N1C(=O)c2ccccc2S1(=O)=O (stereo not drawn) [Example 17, methyl 2-(1-phenyl-1H-tetrazol-5-ylthio)-2-(2-saccharinyl)acetate] | 270 | 2900 | – | –
7 | O=C1c2ccccc2S(=O)(=O)N1C(Sc1nnnn1-c1ccccc1)c1ccccc1 (stereo not drawn) [Example 19, 2-(1-phenyl-1H-tetrazol-5-ylthiophenylmethyl)saccharin] | 8500 | – | – | –
8 | O=C1c2c(Br)cccc2S(=O)(=O)N1CCl [Example 21, 2-chloromethyl-4-bromosaccharin] | 0.5 | 950000 | – | –
9 | COc1cccc2c1C(=O)N(CCl)S2(=O)=O [Example 22A, 2-chloromethyl-4-methoxysaccharin] | 6 | 12400 | – | –
10 | CCC(C)c1cccc2c1C(=O)N(CCl)S2(=O)=O (stereo not drawn) [Example 22B, 2-chloromethyl-4-sec.-butylsaccharin] | 90 | 2400 | – | –
11 | CCC(CC)c1cccc2c1C(=O)N(CCl)S2(=O)=O [Example 22C, 2-chloromethyl-4-(3-pentyl) saccharin] | 0.4 | 105000 | – | –
12 | O=C1c2cccc(Cl)c2S(=O)(=O)N1CCl [Example 22D] | 1.3 | 75800 | – | –
13 | CC(C)c1cccc2c1C(=O)N(CCl)S2(=O)=O [Example 22E, 2-chloromethyl-4-isopropylsaccharin] | 91 | 4700 | – | –
14 | COc1ccc2c(c1OC)C(=O)N(CCl)S2(=O)=O [Example 22F] | 6.5 | 20000 | – | –
15 | COC(=O)c1cccc2c1C(=O)N(CCl)S2(=O)=O [Example 22G] | 50 | 3000 | – | –
16 | CCOc1cccc2c1C(=O)N(CCl)S2(=O)=O [Example 22H] | 1.2 | 25000 | – | –
17 | O=C1c2ccccc2S(=O)(=O)N1CF [Example 27, 2-fluoromethylsaccharin] | 13 | 7500 | – | –
18 | CCc1cccc2c1C(=O)N(CCl)S2(=O)=O [Example 28] | 2.5 | – | – | 50.7
19 | Cc1ccc(C)c2c1C(=O)N(CCl)S2(=O)=O [Example 29, 2-chloromethyl-4,7-dimethylsaccharin] | 120 | 1100 | – | –
20 | O=C(O)c1cccc(-n2nnn(CN3C(=O)c4ccccc4S3(=O)=O)c2=S)c1 [Example 30-O] | 2000 | 30 | – | –
21 | Cc1nnc(SCN2C(=O)c3ccccc3S2(=O)=O)s1 [Example 30AB] | 23 | 2800 | – | –

Row | Compound | Ki [nM] | kon [1] [M⁻¹ s⁻¹] | kon [M⁻¹ s⁻¹] | Elastase 10^-3 × kon [1] [M^-1 sec^-1]
22 | Cn1cnnc1SCN1C(=O)c2ccccc2S1(=O)=O [Example 30AC] | – | 190 | – | –
23 | CSc1nn(CN2C(=O)c3ccccc3S2(=O)=O)c(=S)s1 [Example 30AD] | 11.6 | 7000 | – | –
24 | O=C1c2ccccc2S(=O)(=O)N1CSc1nc(-c2ccccc2)ns1 [Example 30AF] | 12.5 | – | – | 4.2
25 | O=C1c2ccccc2S(=O)(=O)N1CSc1nnc(S)s1 [Example 30AH] | 60 | 1100 | – | –
26 | CC(C)c1cccc2c1C(=O)N(Cn1nnn(-c3ccccc3)c1=S)S2(=O)=O [Example 30AJ] | 15.5 | 1800 | – | –
27 | Cc1nnc(SCN2C(=O)c3c(C(C)C)cccc3S2(=O)=O)s1 [Example 30AM] | 4.5 | 12300 | – | –
28 | CC(C)c1cccc2c1C(=O)N(CSc1nnnn1C)S2(=O)=O [Example 30AN] | 30 | 19000 | – | –
29 | CCOC(=O)Cn1nnnc1SCN1C(=O)c2ccccc2S1(=O)=O [Example 30AP] | 51 | 1300 | – | –
30 | O=C1c2ccccc2S(=O)(=O)N1CSc1nnnn1CCO [Example 30AQ] | 260 | 900 | – | –
31 | COC(=O)c1cn(-c2ccccc2)c(SCN2C(=O)c3ccccc3S2(=O)=O)n1 [Example 30AR] | 153 | 300 | – | –
32 | CN(C)C(=O)Cn1nnnc1SCN1C(=O)c2ccccc2S1(=O)=O [Example 30AS] | 40 | 1700 | – | –
33 | CCOc1cccc2c1C(=O)N(CSc1nnnn1-c1ccccc1)S2(=O)=O [Example 30AT] | – | 45300 | – | –
34 | CC(C)Oc1cccc2c1C(=O)N(CSc1nnnn1-c1ccccc1)S2(=O)=O [Example 30AU] | – | 8900 | – | –
35 | CCc1cccc2c1C(=O)N(CSc1nnnn1CC(=O)N(C)C)S2(=O)=O [Example 30AV] | 15 | 7600 | – | –
36 | CC(C)c1cccc2c1C(=O)N(CSc1nnnn1CC(=O)N(C)C)S2(=O)=O [Example 30AW] | 1 | 30000 | – | –
37 | CCOc1cccc2c1C(=O)N(CSc1nnnn1CC(=O)N(C)C)S2(=O)=O [Example 30AX] | 16 | 7500 | – | –
38 | CC(C)(C)CC(C)(C)c1ccc2c(c1)C(=O)N(CSc1nnnn1-c1ccccc1)S2(=O)=O [Example 30A] | 10500 | – | – | –
39 | O=C1c2c(-c3ccccc3)cccc2S(=O)(=O)N1CSc1nnnn1-c1ccccc1 [Example 30BC] | – | 5800 | – | –
40 | O=C1c2ccccc2S(=O)(=O)N1CSc1nc2ccc([N+](=O)[O-])cc2s1 [Example 30BD] | 8 | 11700 | – | –
41 | O=C1c2ccccc2S(=O)(=O)N1CSc1nc2ccc([N+](=O)[O-])cc2o1 [Example 30BE] | 250 | 7400 | – | –
42 | O=C1c2ccccc2C(=O)N1CN1C(=O)c2ccccc2S1(=O)=O [Example 30BF] | 40000 | 20 | – | –

Row | Compound | Ki [nM] | kon [1] [M⁻¹ s⁻¹] | kon [M⁻¹ s⁻¹] | Elastase 10^-3 × kon [1] [M^-1 sec^-1]
43 | O=C1c2ccccc2S(=O)(=O)N1CSc1nnnn1CCN1CCOCC1 [Example 30BG] | 50 | 1700 | – | –
44 | CC(C)c1cccc2c1C(=O)N(CSc1nnnn1CCN1CCOCC1)S2(=O)=O [Example 30BI] | 0.5 | 39000 | – | –
45 | Nc1cccc(-n2nnnc2SCN2C(=O)c3ccccc3S2(=O)=O)c1 [Example 30C] | 17 | 2500 | – | –
46 | O=C(O)c1ccc(-n2nnnc2SCN2C(=O)c3ccccc3S2(=O)=O)cc1 [Example 30D] | 85 | 800 | – | –
47 | COC(=O)c1cc(C(=O)OC)cc(-n2nnnc2SCN2C(=O)c3ccccc3S2(=O)=O)c1 [Example 30E] | 12.7 | 7300 | – | –
48 | O=C1C=Cc2ccc(OCN3C(=O)c4ccccc4S3(=O)=O)c3cccc1c23 [Example 30G] | 7.7 | 9300 | – | –
49 | O=C1c2ccccc2S(=O)(=O)N1CSc1nncn1-c1ccccc1 [Example 30I] | 650 | 450 | – | –
50 | CCc1cccc2c1C(=O)N(CSc1nnnn1CCN1CCOCC1)S2(=O)=O [Example 30J] | 10 | 14000 | – | –
51 | CCOc1ccc(OCCOCCOC)c2c1C(=O)N(CSc1nnnn1-c1ccccc1)S2(=O)=O [Example 30L] | 7.6 | 6500 | – | –
52 | COCCOCCOc1ccc(OC)c2c1S(=O)(=O)N(CSc1nnnn1-c1ccccc1)C2=O [Example 30M] | 10 | 1000 | – | –
53 | O=C1c2ccccc2S(=O)(=O)N1CSc1nnc2ccccn12 [Example 30N] | 220 | 250 | – | –
54 | O=C1c2ccccc2S(=O)(=O)N1CSc1nnnn1-c1cccnc1 [Example 30Q] | 70.4 | 1380 | – | –
55 | O=C1c2ccccc2S(=O)(=O)N1Cn1nnn(-c2cccnc2)c1=S [Example 30R] | 36 | 2300 | – | –
56 | Cn1nnc(=S)n1CN1C(=O)c2ccccc2S1(=O)=O [Example 30W] | 80 | – | – | 1.5
57 | Cn1nnc(SCN2C(=O)c3ccccc3S2(=O)=O)n1 [Example 30X] | 143 | 550 | – | –
58 | CC(C)c1cccc2c1C(=O)N(Cn1nnn(-c3cccnc3)c1=S)S2(=O)=O [Example 30Z] | 0.5 | 70000 | – | –
59 | O=C1c2ccc([N+](=O)[O-])cc2S(=O)(=O)N1CSc1nnnn1-c1ccccc1 [Example 31C] | 300 | 3400 | – | –
60 | O=C1c2ccccc2S(=O)(=O)N1CS(=O)(=O)c1c(Cl)cccc1Cl [Example 32A, 2-(2,6-dichlorophenylsulfonylmethyl)saccharin] | 145 | 600 | – | –
61 | O=C1c2ccccc2S(=O)(=O)N1CSc1nnc(SCCN2CCOCC2)s1 [Example 33, 2-(5-[2-(4-morpholinyl)ethylthio]-1,3,4-thiadiazol-2-ylthiomethyl)saccharin] | 12 | – | 3600 | –
62 | CN(C)CCSc1nnc(SCN2C(=O)c3ccccc3S2(=O)=O)s1 [Example 33B, 2-(5-[2-(N,N-dimethylamino)-ethylthio]-1,3,4-thiadiazol-2-ylthiomethyl)saccharin] | 18 | 4000 | – | –
63 | O=C1c2ccccc2S(=O)(=O)N1CSc1nnc(SCCN2CCCCC2)s1 [Example 33C, 2-(5-[2-(1-piperidinyl)-ethylthio]-1,3,4-thiadiazol-2-ylthiomethyl)saccharin] | 350 | 200 | – | –
